For data set [1], the system named is glycogen synthase activity in HEK293 cells. The data set can be described thus: Glycogen synthase (GS) assay in HEK293 cells. It is filed as cell-based, human. On the procedure: (§1) Cells on 10 cm dishes (Human Embryonic Kidney (HEK) 293 cells, L6 rat myocytes, or 3T3 mouse adipocytes) were treated with different concentrations of GSK3-inhibitors or DMSO vehicle for 90 min. Incubation medium was removed and cells were washed with ice-cold phosphate-buffered saline (PBS) prior to lysis on ice in 50 mM HEPES, pH 7.5, 10 mM EDTA, 100 mM NaF, 5 mM DTT, protease inhibitor cocktail (Sigma). After a freeze/thaw cycle the samples are sonicated for 10 sec and centrifuged at 15,000 g for 10 min at 4° C. Lysate supernatants were snap-frozen on liquid nitrogen and stored at −80° C. Lysates were assayed for glycogen synthase activity in buffer (50 mM Tris-HCl, pH 7.8, 20 mM EDTA, 25 mM NaF, 5 mM DTT, 1% glycogen, 0.3 mM UDP-glucose and 0.06 μCi of [^14C]-UDP-glucose in the presence of 0.1 or 10 mM glucose-6-phosphate. The reaction was carried out for 30 min at 30° C. 70 μL of the reaction mixture (total volume 90 μL) were transferred to a GFC 96-well filter plate (bottom sealed with foil), containing 140 μL 96% ethanol. The GFC plate was incubated for 1 h on ice and than washed with 66% ethanol. To each well 100 μL scintillant liquid was added and the radioactivity of the samples was measured using a scintillation counter (Topcount, HP). Data are expressed as -fold increase in glycogen synthase activity ratios over those of control samples.

Data set [2] relates to β-catenin-LEF/TCF transcriptional activity in HEK293 cells. The data set can be described thus: β-Catenin-LEF/TCF regulated reporter gene assay. It is filed as cell-based, human. To be noted: LiCl. The source says:
Furthermore, the effect of compound XIV on the β-catenin-dependent transcriptional activity, as measured in a luciferase based reporter gene assay, was studied.
HEK293 cells were transfected with either β-catenin-LEF/TCF-sensitive or β-catenin-LEF/TCF-insensitive reporter vector (Upstate Biotechnology, Inc.) using Lipofectamine Plus reagent (GibcoBRL) according to the manufacturer's instructions. The next day, cells were trypsinized, washed into serum-free medium, counted and seeded at 40,000 cells per well in a 96-well plate. Subsequent to cell attachment, LiCl or GSK-3 inhibitor compound were added to the medium to the required concentrations. Control cells were DMSO vehicle treated. 16 h after inhibitor addition, cells were analyzed for luciferase activity using the Steady-Glo Luciferase assay system (Promega) according to the manufacturer's instructions.
A general note: In a reporter assay the amount or activity of a reporter protein is the signal.

Data set [3] deals with glycogen synthase activity in 3T3 mouse adipocytes. The data set can be described thus: Glycogen synthase (GS) assay in 3T3 mouse adipocytes. It is filed as cell-based. The conditions noted are these: 3T3 cells, 40 mM. On the procedure:
Mouse pre-adipocytes 3T3-F442A were seeded at 9×10^5 cells per 10 cm dish in DMEM 10% FCS, containing penicillin/streptomycin. When 90% confluent, the same medium was supplemented with 1 μg/mL insulin. After 3-5 days (when most cells were differentiated) insulin was removed and 4 days later the cells were ready to use.
as §1

The target of another data set is T1, CDK2/cyclin A (Homo sapiens, UniProt P24941).
T1 construct: His6 (N); made in house; host or cells: Sf9 insect cells (baculovirus)
The data set can be described thus: CDK/cyclin kinase assay, CDK2/cyclin A. To be noted: primary screening at 1 μM. The class given is biochemical. On the procedure: (§2) CDK4/cyclin D1, CDK1/cyclin B, CDK2/cyclin E, CDK2/cyclin A, CDK9/cyclin T1 and CDK7/cyclin H, all with a His6 tag on the N-terminus, were expressed in Sf9 insect cells using an appropriate baculovirus construct. Sf9 culture (1.6×10^6 cells/mL) was infected (MOI of 3) for two days. The cells were harvested by low speed centrifugation and the protein was purified from the insect cell pellet by metal affinity chromatography. In short: the insect cell pellet was lysed in Buffer A (10 mM Tris-HCl pH 8.0, 150 mM NaCl, 0.02% NP-40, 5 mM β-mercaptoethanol, 20 mM NaF, 1 mM Na3VO4, and Sigma Protease Inhibitor Cocktail) by sonication. The soluble fraction was cleared by centrifugation and loaded onto Ni-NTA-Agarose (Qiagen). Non-bound protein was washed off with 300 mM NaCl, 5-15 mM imidazole in buffer A and the bound protein was eluted with buffer A supplemented with 250 mM imidazole. The purified proteins were extensively dialyzed against storage buffer (20 mM HEPES pH 7.4, 50 mM NaCl, 2 mM DTT, 1 mM EDTA, 1 mM EGTA, 0.02% NP-40, 10% v/v glycerol) and stored at −70° C.
(§3) Compounds were investigated for their CDK2/cyclin E, CDK2/cyclin A, CDK1/cyclin B, and CDK4/cyclin D1 inhibitory activity. His6-tagged recombinant human cyclin-dependent kinases CDK1/cyclin B1, CDK2/cyclin E, CDK2/cyclin A, and CDK4 were expressed in sf9 insect cells using a baculovirus expression system. Recombinant cyclin D1 was expressed in E. coli. Proteins were purified by metal chelate affinity chromatography to greater than 90% homogeneity. Kinase assays were performed in 96-well plates using recombinant CDK/cyclins. Assays were performed in assay buffer (25 mM β-glycerophosphate, 20 mM MOPS, 5 mM EGTA, 1 mM DTT, 1 mM […], pH 7.4), into which were added 2-4 μg of active enzyme with appropriate substrates (purified histone H1 for CDK1 and CDK2, recombinant GST-retinoblastoma protein (residues 773-928) for CDK4). The reaction was initiated by addition of Mg/ATP mix (15 mM MgCl2+100 μM ATP with 30-50 kBq per well of [γ-^32P]-ATP) and mixtures incubated for 10-45 min, as required, at 30° C. Reactions were stopped on ice, followed by filtration through p81 or GF/C filterplates (for CDK4) (Whatman Polyfiltronics, Kent, UK). After washing 3 times with 75 mM aq orthophosphoric acid, plates were dried, scintillant added and incorporated radioactivity measured in a scintillation counter (TopCount, Packard Instruments, Pangbourne, Berks, UK). Compounds for kinase assays were made up as 10 mM stocks in DMSO and diluted into 10% DMSO in assay buffer. Data was analysed using curve-fitting software (GraphPad Prism version 3.00 for Windows, GraphPad Software, San Diego Calif. USA) to determine IC50 values (concentration of test compound which inhibits kinase activity by 50%).

A further data set concerns the target T2, GSK-3β (Oryctolagus cuniculus, UniProt G1T8E2).
T2 construct: isolated from a strain of E. coli that carries a clone expressing GSK-3β derived from a rabbit skeletal muscle cDNA library [34]
The data set can be described thus: GSK-3β kinase assay. It is filed as biochemical, rabbit. The conditions noted are these: read-out: Kinase inhibition IC50 GSK3β. As to the method: GSK-3 was obtained from New England Biolabs (UK) Ltd., Hitchin, Herts. The recombinant enzyme was isolated from a strain of E. coli that carries a clone expressing GSK-3β derived from a rabbit skeletal muscle cDNA library. Inhibition of GSK-3 function was assessed by measurement of phosphorylation of CREB phosphopeptide KRREILSRRPpSYR in the presence of test compounds. Using a 96-well assay format, GSK3 (7.5 U) was incubated for 30 min at 30° C. in a total volume of 25 μL in 20 mM MOPS pH 7.2, 25 mM β-glycerophosphate, 5 mM EGTA, 1 mM DTT, 1 mM […], 40 μM CREB peptide, 15 mM MgCl2 and 100 μM ATP (containing 0.25 μCi [γ-^32P]-ATP) in the presence of varying concentrations of test compound. The samples were transferred to 96-well p81 filter plates (Whatman Polyfiltronics, Kent, UK), and the plates were washed 4 times with 200 μL/well of 75 mM aq orthophosphoric acid. Scintillation liquid (50 μL) was added to each well, and incorporated radioactivity for each sample was determined using a scintillation counter (TopCount, Packard Instruments, Pangbourne, Berks, UK).

In another data set the target is T3, CDK4/cyclin D1 (Homo sapiens, UniProt P11802).
T3 construct: His6 (N); made in house; host or cells: CDK4: Sf9 insect cells (baculovirus); Cyclin D1: E. coli, Sf9
T3 sequence (P11802 whole entry): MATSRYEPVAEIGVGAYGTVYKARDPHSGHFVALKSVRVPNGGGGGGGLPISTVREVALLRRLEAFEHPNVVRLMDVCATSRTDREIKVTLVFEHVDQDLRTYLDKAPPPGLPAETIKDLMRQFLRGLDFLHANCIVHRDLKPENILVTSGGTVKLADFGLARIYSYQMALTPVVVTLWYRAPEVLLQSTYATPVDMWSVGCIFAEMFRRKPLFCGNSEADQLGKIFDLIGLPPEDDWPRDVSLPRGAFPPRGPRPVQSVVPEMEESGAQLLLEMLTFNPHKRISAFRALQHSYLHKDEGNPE
T3 sequence (P24385 whole entry partner): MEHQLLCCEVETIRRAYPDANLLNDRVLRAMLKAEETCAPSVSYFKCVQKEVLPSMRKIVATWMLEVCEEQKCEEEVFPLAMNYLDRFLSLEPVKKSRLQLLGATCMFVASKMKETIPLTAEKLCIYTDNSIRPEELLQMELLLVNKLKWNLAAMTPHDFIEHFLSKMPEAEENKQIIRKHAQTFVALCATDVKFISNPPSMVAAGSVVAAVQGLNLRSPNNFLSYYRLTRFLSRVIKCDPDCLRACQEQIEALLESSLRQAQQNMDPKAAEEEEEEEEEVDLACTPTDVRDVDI
The data set can be described thus: CDK/cyclin kinase assay, CDK4/cyclin D1. It is filed as biochemical. To be noted: read-out: Kinase inhibition IC50 CDK4/D1. As to the method:
as §2, §3

In the next data set the target is T4, CDK1/cyclin B1 (Homo sapiens, UniProt P06493).
T4 construct: His6 (N); made in house; host or cells: Sf9 insect cells (baculovirus)
T4 sequence (P06493 whole entry): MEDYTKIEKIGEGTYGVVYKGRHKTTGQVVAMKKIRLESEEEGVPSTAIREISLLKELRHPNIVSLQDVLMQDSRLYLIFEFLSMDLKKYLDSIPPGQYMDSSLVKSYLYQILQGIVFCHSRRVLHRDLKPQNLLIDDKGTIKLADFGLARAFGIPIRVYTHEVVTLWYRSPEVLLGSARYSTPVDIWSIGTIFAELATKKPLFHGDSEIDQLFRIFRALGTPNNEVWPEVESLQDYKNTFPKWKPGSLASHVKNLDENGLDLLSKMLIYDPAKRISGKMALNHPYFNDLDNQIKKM
T4 sequence (P14635 whole entry partner): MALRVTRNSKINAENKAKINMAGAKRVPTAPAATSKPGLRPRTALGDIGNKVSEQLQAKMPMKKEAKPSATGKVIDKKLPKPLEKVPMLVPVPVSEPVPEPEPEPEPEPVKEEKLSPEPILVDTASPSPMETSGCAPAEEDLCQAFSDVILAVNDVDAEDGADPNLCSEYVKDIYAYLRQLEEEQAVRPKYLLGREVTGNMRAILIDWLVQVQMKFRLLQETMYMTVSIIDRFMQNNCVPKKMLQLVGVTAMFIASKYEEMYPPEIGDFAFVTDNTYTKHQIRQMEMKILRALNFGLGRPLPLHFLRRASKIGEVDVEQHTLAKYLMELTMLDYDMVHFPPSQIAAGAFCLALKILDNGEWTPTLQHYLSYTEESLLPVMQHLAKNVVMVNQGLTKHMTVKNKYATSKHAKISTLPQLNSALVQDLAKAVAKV
The data set can be described thus: CDK/cyclin kinase assay, CDK1/cyclin B1. It is filed as biochemical. To be noted: primary screening at 1 μM. As to the method: as §2, §3

Another data set concerns the target T5, CDK2/cyclin E (Homo sapiens, UniProt P24941).
T5 construct: His6 (N); made in house; host or cells: Sf9 insect cells (baculovirus)
The data set can be described thus: CDK/cyclin kinase assay, CDK2/cyclin E. The class given is biochemical. To be noted: primary screening at 1 μM. As to the method: as §2, §3

What is called fold induction is the signal under treatment as a multiple of the control signal. The term inhibition denotes the change of the read-out against control, counted positive when it falls.

T2 sequence (G1T8E2 1-432): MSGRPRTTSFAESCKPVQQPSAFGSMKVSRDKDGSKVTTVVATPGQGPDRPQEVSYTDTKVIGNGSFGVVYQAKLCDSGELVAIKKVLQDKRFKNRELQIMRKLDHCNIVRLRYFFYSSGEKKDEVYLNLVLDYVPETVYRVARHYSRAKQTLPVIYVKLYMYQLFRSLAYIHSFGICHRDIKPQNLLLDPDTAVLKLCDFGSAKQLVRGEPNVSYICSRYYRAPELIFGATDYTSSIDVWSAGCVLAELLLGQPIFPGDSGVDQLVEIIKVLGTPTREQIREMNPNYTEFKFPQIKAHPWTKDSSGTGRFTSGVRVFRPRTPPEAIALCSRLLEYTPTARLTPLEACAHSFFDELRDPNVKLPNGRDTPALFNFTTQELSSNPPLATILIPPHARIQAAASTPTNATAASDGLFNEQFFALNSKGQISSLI

For `[Cl-].[Li+]` [LiCl, reference compound], the “Fold induction of GS activity” value in data set [1] (HEK293 cells, 40 mM) is on record as 3.7 fold; in data set [3] it was 2 fold. For the same compound, the β-catenin-dependent luciferase activity result in data set [2] is “massive induction”.

Turning to `OCCc1sc(-c2ccnc(Nc3ccc(Cl)nc3)n2)nc1O` [XXVI, 2-[2-(6-Chloro-pyridin-3-ylamino)-pyrimidin-4-yl]-5-(2-hydroxy-ethyl)-thiazol-4-ol], the fold induction at 5 µM in data set [1] (Homo sapiens, In HEK293 cells at [compound] = 5 μM (Table 2)) is 5.2 ± 3.2. In addition, the inhibition at 1 µM against CDK2/cyclin A, against CDK1/cyclin B1 and at CDK2/cyclin E was below 50% throughout. In addition, the IC50 at GSK-3β came to 164 nM; on CDK4/cyclin D1, 2080 nM.

Values taken from patent US20080318954A1, “Compounds” (Cyclacel Limited, priority 2004, published 2008).
